Broadly, the melting point is the temperature, or range, at which the solid turns liquid.

On to `COc1ccc(CC(=O)Nc2c(-c3ccncc3)c(-c3ccc(F)cc3)nn2C)cc1OC` [Example 44, 5-(3,4-Dimethoxyphenylacetylamino)-3-(4-fluorophenyl)-1-methyl-4-(4-pyridyl)pyrazole], for which the melting point was 174.4 to 180.3 °C.

The molecule `Cn1nc(NC(=O)Cc2ccccc2)c(-c2ccncc2)c1-c1ccc(F)cc1` [Example 116, 5-(4-fluorophenyl)-1-methyl-3-phenylacetylamino-4-(4-pyridyl)pyrazole] registered a melting point of 157.6 to 160.1 °C.

The molecule `CC(C)[C@H](NC(=O)OC(C)(C)C)C(=O)Nc1n[nH]c(-c2ccc(F)cc2)c1-c1ccncc1` [Example 87, 3-(N′-Carbo-t-butoxy-L-valylamino)-5-(4-fluorophenyl)-4-(4-pyridyl)pyrazole] returned a melting point of 217.1 to 217.6 °C.

`CC(C)(C)C(=O)Nc1n[nH]c(-c2ccc(F)cc2)c1-c1ccncc1` [Example 21, 5-(4-Fluorophenyl)-4-(4-pyridyl)-3-pivaloylaminopyrazole] gave a melting point of 217.9 to 220.6 °C.

Take `Cc1ccccc1CC(=O)Nc1c(-c2ccncc2)c(-c2ccc(F)cc2)nn1C` [Example 67, 3-(4-Fluorophenyl)-1-methyl-5-(2-methylphenylacetylamino)-4-(4-pyridyl)pyrazole]: the melting point lay in the range of 197.6 to 200.5 °C.

On to `O=C(Cc1ccccc1)Nc1n[nH]c(-c2ccccc2)c1-c1ccncc1` [Example 9, 3-Phenylacetylamino-5-phenyl-4-(4-pyridyl)pyrazole], for which the melting point lay within 257.3 to 264.1 °C.

In the case of `O=C(Cc1cccc(Cl)c1)Nc1n[nH]c(-c2ccc(F)cc2)c1-c1ccncc1` [Example 25, 3-(3-Chlorophenylacetylamino)-5-(4-fluorophenyl)-4-(4-pyridyl)pyrazole], the melting point fell in the range of 249.7 to 250.8 °C.

Take `O=C(Nc1n[nH]c(-c2ccc(F)cc2)c1-c1ccncc1)C(F)(F)F` [Example 22, 5-(4-fluorophenyl)-4-(4-pyridyl)-3-trifluoroacetylaminopyrazole]: the melting point lay in the range of 260.1 to 265.2 °C.

Regarding `O=C(Cc1ccc(F)cc1)Nc1n[nH]c(-c2ccc(F)cc2)c1-c1ccncc1` [Example 26, 5-(4-Fluorophenyl)-3-(4-fluorophenylacetylamino)-4-(4-pyridyl)pyrazole], the melting point fell in the range of 259.4 to 261.2 °C.

`Cn1nc(-c2ccc(F)cc2)c(-c2ccncc2)c1NC(=O)Cc1c[nH]c2ccccc12` [Example 82, 3-(4-Fluorophenyl)-5-(indol-3-ylacetylamino)-1-methyl-4-(4-pyridyl)pyrazole] displayed a melting point of 66.9 to 68.8 °C.

`Cn1nc(-c2ccc(F)cc2)c(-c2ccncc2)c1NC(=O)Cc1c(F)cccc1F` [Example 46, 5-(2,6-Difluorophenylacetylamino)-3-(4-fluorophenyl)-1-methyl-4-(4-pyridyl)pyrazole] had a melting point of 239.9 to 242.5 °C.

In turn, `CN(C(=O)OC(C)(C)C)[C@@H](Cc1ccccc1)C(=O)Nc1n[nH]c(-c2ccc(F)cc2)c1-c1ccncc1` [Example 89, 3-(N′-Carbo-t-butoxy-N′-methyl-L-Phenylalanylamino)-5-(4-fluorophenyl)-4-(4-pyridyl)pyrazole] yielded a melting point of 232.4 to 233.1 °C.

`CSc1ccc(CC(=O)Nc2c(-c3ccncc3)c(-c3ccc(F)cc3)nn2C)cc1` [Example 71, 3-(4-Fluorophenyl)-1-methyl-5-(4-methylthiophenylacetyl-amino)-4-(4-pyridyl)pyrazole] displayed a melting point of 182.5 to 184.7 °C.

For the molecule `O=C(CO)Nc1n[nH]c(-c2ccc(F)cc2)c1-c1ccncc1` [Example 14, 5-(4-Fluorophenyl)-3-hydroxyacetylamino-4-(4-pyridyl)pyrazole], the melting point lay within 264 to 266 °C.

Regarding `Cn1nc(-c2ccc(F)cc2)c(-c2ccncc2)c1NC(=O)Cc1cccc(F)c1F` [Example 49, 5-(2,3-Difluorophenylacetylamno)-3-(4-fluorophenyl)-1-methyl-4-(4-pyridyl)pyrazole], the melting point was in the range of 181.3 to 182.5 °C.

On to `CC(C)C(=O)Nc1n[nH]c(-c2ccc(F)cc2)c1-c1ccncc1` [Example 18, 5-(4-Fluorophenyl)-3-isobutyrylamino-4-(4-pyridyl)pyrazole], for which the melting point lay within 291.1 to 294 °C.

Turning to `Cn1nc(-c2ccc(F)cc2)c(-c2ccncc2)c1NC(=O)Cc1ccncc1` [Example 78, 3-(4-Fluorophenyl)-1-methyl-4-(4-pyridyl)-5-(4-pyridylacetylamino)pyrazole], the melting point was in the range of 141.3 to 143.4 °C.

As for `Nc1ccccc1CC(=O)Nc1n[nH]c(-c2ccc(F)cc2)c1-c1ccncc1` [Example 93, 5-(4-fluorophenyl)-3-(2-aminophenylacetylamino)-4-(4-pyridyl)pyrazole], the melting point was in the range of 196.3 to 197.1 °C.

Molecule `Cn1nc(-c2ccc(F)cc2)c(-c2ccncc2)c1NC(=O)Cc1ccc(F)cc1Cl` [Example 39, 5-(2-Chloro-4-fluorophenylacetylamino)-3-(4-fluorophenyl)-1-methyl-4-(4-pyridyl)pyrazole] gave a melting point of 229 to 232.7 °C.

In turn, `C[C@H](NC(=O)OC(C)(C)C)C(=O)Nc1n[nH]c(-c2ccc(F)cc2)c1-c1ccncc1` [Example 86, 3-(N′-Carbo-t-butoxy-L-alanylamino)-5-(4-fluorophenyl)-4-(4-pyridyl)pyrazole] displayed a melting point of 223 to 224.7 °C.

On to `CCn1nc(-c2ccc(F)cc2)c(-c2ccncc2)c1NC(=O)Cc1ccccn1` [Example 100, 1-Ethyl-3-(4-fluorophenyl)-4-(4-pyridyl)-5-(2-pyridylacetylamino)pyrazole], for which the melting point fell in the range of 147.5 to 149.5 °C.

As to `O=C(Cc1c(F)c(F)c(F)c(F)c1F)Nc1n[nH]c(-c2ccc(F)cc2)c1-c1ccncc1` [Example 31, 5-(4-Fluorophenyl)-3-(2,3,4,5,6-pentafluorophenylacetylamino)-4-(4-pyridyl)pyrazole], the melting point was no less than 325 °C.

In turn, `Cn1nc(-c2ccc3c(c2)OCO3)c(-c2ccncc2)c1NC(=O)Cc1ccccc1` [Example 109, 1-methyl-3-(3,4-methylenedioxyphenyl)-5-phenylacetylamino-4-(4-pyridyl)pyrazole] returned a melting point of 127.5 to 132.1 °C.

In turn, `COc1cccc(CC(=O)Nc2c(-c3ccncc3)c(-c3ccc(F)cc3)nn2C)c1` [Example 63, 3-(4-Fluorophenyl)-5-(3-methoxyphenylacetylamino)-1-methyl-4-(4-pyridyl)pyrazole] returned a melting point of 135 to 141.2 °C.

`O=C(Cc1ccccc1Cl)Nc1c(-c2ccncc2)c(-c2ccc(F)cc2)nn1-c1ccccc1` [Example 107, 5-(2-chlorophenylacetylamino)-3-(4-fluorophenyl)-1-phenyl-4-(4-pyridyl)pyrazole] gave a melting point of 265.2 to 268 °C.

Molecule `CC(C(=O)Nc1n[nH]c(-c2ccc(F)cc2)c1-c1ccncc1)c1ccccc1` (centres unmarked) [Example 5, 5-(4-Fluorophenyl)-3-(2-phenylpropionylamino)-4-(4-pyridyl)pyrazole] returned a melting point of 240.6 to 241 °C.

Turning to `Cn1nc(-c2ccc(F)cc2)c(-c2ccncc2)c1NC(=O)Cc1cccnc1` [Example 77, 3-(4-Fluorophenyl)-1-methyl-4-(4-pyridyl)-5-(3-pyridylacetylamino)pyrazole], the melting point lay within 220 to 220.9 °C.

Regarding `COc1ccc(CC(=O)Nc2n[nH]c(-c3ccc(F)cc3)c2-c2ccncc2)cc1` [Example 3, 5-(4-Fluorophenyl)-3-(4-methoxyphenylacetylanino)-4-(4-pyridyl)pyrazole], the melting point is 265.1 to 266.2 °C.

Take `CC(C)[C@H](NC(=O)OCc1ccccc1)C(=O)Nc1n[nH]c(-c2ccc(F)cc2)c1-c1ccncc1` [Example 85, 3-(N′-carbobenzoxy-L-valylamino)-5-(4-fluorophenyl)-4-(4-pyridyl)pyrazole]: the melting point was 231.1 °C.

`Cn1nc(-c2ccc3c(c2)OCO3)c(-c2ccncc2)c1NC(=O)Cc1ccc(F)c(Cl)c1` [Example 110, 5-(3-Chloro-4-fluorophenylacetylamino)-1-methyl-3-(3,4-methylenedioxyphenyl)-4-(4-pyridyl)pyrazole] displayed a melting point of 206.9 to 208.7 °C.

Take `O=C(Cc1ccc(Cl)cc1)Nc1n[nH]c(-c2ccc(F)cc2)c1-c1ccncc1` [Example 6, 3-(4-Chlorophenylacetylamino)-5-(4-fluorophenyl)-4-(4-pyridyl)pyrazole]: the melting point is 273.2 to 277.3 °C.

In the case of `COc1ccccc1CC(=O)Nc1c(-c2ccncc2)c(-c2ccc(F)cc2)nn1CCOCc1ccccc1` [Example 103, 1-(2-Benzyloxyethyl)-3-(4-fluorophenyl)-5-(2-methoxyphenylacetylamino)-4-(4-pyridyl)pyrazole], the melting point was 142.9 to 144.2 °C.

For `Cn1nc(-c2ccc(F)cc2)c(-c2ccncc2)c1NC(=O)Cc1cccc(N)c1` [Example 94, 5-(3-Aminophenylacetylamino)-3-(4-fluorophenyl)-1-methyl-4-(4-pyridyl)pyrazole], the melting point lay within 110.6 to 119 °C.

`Cn1nc(-c2ccc(F)cc2)c(-c2ccncc2)c1NC(=O)Cc1ccc(F)cc1F` [Example 40, 5-(2,4-Difluorophenylacetylamino)-3-(4-fluorophenyl)-1-methyl-4-(4-pyridyl)pyrazole] showed a melting point of 225.5 to 228.3 °C.

`CCCn1nc(-c2ccc(F)cc2)c(-c2ccncc2)c1N(C)C(=O)Cc1ccccc1` [Example 128, 3-(4-Fluorophenyl)-5-(N-methyl-N-phenylacetylamino)-1-propyl-4-(4-pyridyl)pyrazole] had a melting point of 124.5 to 127.3 °C.

Consider `CN(C(=O)Cc1ccccc1Cl)c1c(-c2ccncc2)c(-c2ccc(F)cc2)nn1C` [Example 121, 5-[N-(2-chlorophenylacetyl)-N-methylamino]-3-(4-fluorophenyl)-1-methyl-4-(4-pyridyl)pyrazole], for which the melting point lay within 168.6 to 171.2 °C.

Turning to `CN(C(=O)Cc1ccc(F)cc1)c1c(-c2ccncc2)c(-c2ccc(F)cc2)nn1C` [Example 125, 3-(4-Fluorophenyl)-5-[N-(4-fluorophenylacetyl)-N-methylamino]-1-methyl-4-(4-pyridyl)pyrazole], the melting point fell in the range of 124.1 to 125.6 °C.

Turning to `Cn1nc(-c2ccc(F)c(Cl)c2)c(-c2ccncc2)c1NC(=O)Cc1ccccc1` [Example 113, 3-(3-Chloro-4-fluorophenyl)-1-methyl-5-phenylacetylamino-4-(4-pyridyl)pyrazole], the melting point fell in the range of 194.2 to 194.7 °C.

The values are drawn from US6511997B1, “Aminopyrazole derivatives” (Teikoku Hormone Mfg. Co., Ltd., priority 1998, dated 2003).
